Test results from article PMC8330742, “New benzothieno[2,3-c]pyridines as non-steroidal CYP17 inhibitors: design, synthesis, anticancer screening, apoptosis induction, and in silico ADME profile studies” (Journal of Enzyme Inhibition and Medicinal Chemistry, 2021).

Key:
[1] = system: 786-0; assay: NCI-60 SRB screen; format: cell-based; conditions: 786-0; for inhibition at 10 µM: single dose 10^−5 M, read-out: Growth inhibition (%);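 on IC50: half-maximal inhibitory concentration read as cell viability unlike GI50 net growth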
[2] = system: A498; assay: NCI-60 SRB screen; format: cell-based, human; conditions: A498; for inhibition at 10 µM: single dose 10^−5 M, read-out: Growth inhibition (%);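 on IC50: half-maximal inhibitory concentration read as cell viability unlike GI50 net growth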
[3] = system: DU-145; assay: NCI-60 SRB screen; format: cell-based, human; conditions: DU-145; for inhibition at 10 µM: single dose 10^−5 M, read-out: Growth inhibition (%);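 on IC50: half-maximal inhibitory concentration read as cell viability unlike GI50 net growth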
[4] = system: MDA-MB-468; assay: NCI-60 SRB screen; format: cell-based, human; conditions: MDA-MB-468; for inhibition at 10 µM: single dose 10^−5 M, read-out: Growth inhibition (%)
[5] = system: PC-3; assay: NCI-60 SRB screen; format: cell-based, human; conditions: PC-3; for inhibition at 10 µM: single dose 10^−5 M, read-out: Growth inhibition (%)
[6] = system: T-47D; assay: NCI-60 SRB screen; format: cell-based, human; conditions: for inhibition at 10 µM: single dose 10^−5 M, read-out: Growth inhibition (%)
[7] = system: BT-549; assay: NCI-60 SRB screen; format: cell-based, human; conditions: BT-549; for inhibition at 10 µM: single dose 10^−5 M, read-out: Growth inhibition (%)
[8] = system: MCF7; assay: NCI-60 SRB screen; format: cell-based, human; conditions: for inhibition at 10 µM: MCF-7, single dose 10^−5 M, read-out: Growth inhibition (%)
[9] = system: OVCAR-5; assay: NCI-60 SRB screen; format: cell-based, human; conditions: OVCAR-5; for inhibition at 10 µM: single dose 10^−5 M, read-out: Growth inhibition (%)
[10] = system: MDA-MB-231/ATCC; assay: NCI-60 SRB screen; format: cell-based, human; conditions: for inhibition at 10 µM: MDA-MB-231, MDAMB231/ATCC, single dose 10^−5 M, read-out: Growth inhibition (%)
[11] = system: prostate cancer cell line (PC-3); assay: MTT cytotoxicity assay; format: cell-based, human
Description: (§1) The MTT method for monitoring in vitro cytotoxicity was used with multiwell plates. Three human cell lines, namely prostate cancer cell line (PC-3), renal cancer cell line (UO-31), and breast cancer cell line (MCF-7) were obtained from the American Type Culture Collection ATCC, Manassas, VA, USA). The cells were trypsinized and seeded in 96 well plates with a density of 1.2 − 1.8 × 10,000 cells/well for 24 h at 37 °C. After treating the cells with five concentrations of compound 5c (0.01, 0.1, 1, 10, 100 µM), an MTT solution (Sigma Co., St. Louis, MO, USA) (5 mg/mL in phosphate buffer solution) was applied to each well and […]. The plates were cultivated in 5% CO2 for 4 h at 37 °C. Successively, the remaining formazan crystals were dissolved in 100 µl of DMSO, and the absorbance was determined with the ROBONIK P2000 spectrophotometer at a wavelength of 570 nm. The obtained values were analysed using Gen5 software (BioTek, UK). The proliferation percentage in each treated cell line was standardised based on their control wells. Both tests have been conducted in triplicate. The IC50 values were calculated using sigmoidal dose-response curve fitting models. […] Each test included a blank containing a complete medium without cells.

[12] = system: renal cancer cell line (UO-31); assay: MTT cytotoxicity assay; format: cell-based, human
Description: as §1

[13] = system: breast cancer cell line (MCF-7); assay: MTT cytotoxicity assay; format: cell-based, human
Description: as §1

[14] = system: UACC-257; assay: NCI-60 SRB screen; format: cell-based, human; conditions: UACC-257; for inhibition at 10 µM: UACC-275 (so in the source), single dose 10^−5 M, read-out: Growth inhibition (%)
[15] = system: RPMI-8226; assay: NCI-60 SRB screen; format: cell-based; conditions: RPMI-8226; for inhibition at 10 µM: single dose 10^−5 M, read-out: Growth inhibition (%)
[16] = system: SF-539; assay: NCI-60 SRB screen; format: cell-based, human; conditions: SF-539, five dose;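 on IC50: half-maximal inhibitory concentration read as cell viability unlike GI50 net growth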
[17] = system: PC-3 cells; assay: Cell cycle analysis (propidium iodide, flow cytometer); format: cell-based, human; conditions: PC-3, 2.34 µM, 24 h
Description: The prostate PC-3 cells were placed in a six-well plate at 1 × 10^5 conc. of cells/well, then incubated for 24 h. The cells were treated with 2.34 µM of compound 5c or (0.1% DMSO) for 24 h. Thereafter, cells were collected and fixed for 12 h using ice-cold 70% ethanol at 4 °C. Then, ethanol was removed, and the cells were washed with cold Phosphate Buffer Saline (PBS) and incubated for 30 min at 37 °C in 0.5 ml of PBS. The cells were stained for 30 min with propidium iodide in the dark. The flow cytometer was used to detect DNA contents.

[18] = system: SNB-19; assay: NCI-60 SRB screen; format: cell-based; conditions: SNB-19, five dose
[19] = system: U251; assay: NCI-60 SRB screen; format: cell-based, human; conditions: U251, five dose
[20] = system: SNB-75; assay: NCI-60 SRB screen; format: cell-based, human; conditions: SNB-75, five dose
[21] = system: PC-3 cells; assay: Annexin V-FITC apoptosis assay; format: cell-based, human; conditions: PC-3, 2.34 µM, 24 h
Description: PC-3 cells were placed in a 6-well plate at 1 × 10^5 conc. of cells per well, then incubated for 24 h. Afterward, the cells were treated with 2.34 µM of compound 5c or (0.1% DMSO) for 24 h, then harvested, washed with PBS, and stained with annexin V-FITC and PI in binding buffer ([…], […], and […] at pH 7.4) for 15 min at room temperature in the dark, then analysed by the flow cytometer.

[22] = Homo sapiens, MDA-MB-231/ATCC, five dose

Compound `COc1ccc(C2NC(=O)C(C#N)c3c2sc2c(F)cccc32)c(OC)c1` (stereo not drawn) [Compound 5a, 1-(2,4-Dimethoxyphenyl)-4-cyano-8-fluoro-1,2-dihydro[1]benzothieno [2,3-c]pyridin-3(4H)-one] has an inhibition at 10 µM ([1]; Homo sapiens) of 31.6%, an inhibition at 10 µM ([2]; Homo sapiens) of 74.8% and an inhibition at 10 µM ([3]; Homo sapiens) of 9.51%. It also gave an inhibition at 10 µM ([4]; Homo sapiens) of 75.7%, an inhibition at 10 µM ([5]; Homo sapiens) of 43.2% and an inhibition at 10 µM ([6]; Homo sapiens, T47D) of 38.3%. The inhibition at 10 µM ([7]; Homo sapiens) was 78.6%, the inhibition at 10 µM ([8]; Homo sapiens) was 75.5% and the inhibition at 10 µM ([9]; Homo sapiens) was 1.24%. For the same compound, the inhibition at 10 µM ([10]; Homo sapiens) was 27.3%, the melting point was 100 to 102 °C and the “potency compared to staurosporine” value [11] was “moderate activity”. For the same compound, the “potency compared to staurosporine” value [12] was “weak activity”, the “potency compared to staurosporine” value [13] was “moderate activity” and the inhibition at 10 µM ([14]; Homo sapiens) was 31.8%.
`COc1ccc(C2NC(=O)C(C#N)c3c2sc2c(F)cccc32)cc1` (stereo not drawn) [Compound 5b, 4-Cyano-8-fluoro-1-(4-methoxyphenyl)-1,2-dihydro[1]benzothieno[2,3-c] pyridin-3(4H)-one] gave an inhibition at 10 µM ([1]; Homo sapiens) of 29.1%, an inhibition at 10 µM ([2]; Homo sapiens) of 68.8% and an inhibition at 10 µM ([3]; Homo sapiens) of 35.2%. It also gave an inhibition at 10 µM ([15]; Homo sapiens) of 36.9%, an inhibition at 10 µM ([4]; Homo sapiens) of 66.3% and an inhibition at 10 µM ([5]; Homo sapiens) of 50.6%. It also gave an inhibition at 10 µM ([6]; Homo sapiens, T47D) of 19.9%, an inhibition at 10 µM ([7]; Homo sapiens) of 44.6% and an inhibition at 10 µM ([8]; Homo sapiens) of 67.4%. For the same compound, the inhibition at 10 µM ([9]; Homo sapiens) was 14.4%, the inhibition at 10 µM ([10]; Homo sapiens) was 28.8% and the melting point was 103 to 105 °C. The “potency compared to staurosporine” value [11] was “moderate activity”, the “potency compared to staurosporine” value [12] was “moderate activity” and the “potency compared to staurosporine” value [13] was “moderate activity”. The inhibition at 10 µM ([14]; Homo sapiens) was 36.1%.
With `N#CC1C(=O)NC(c2ccccc2[N+](=O)[O-])c2sc3c(F)cccc3c21` (stereo not drawn) [Compound 5c, 4-Cyano-8-fluoro-1-(2-nitrophenyl)-1,2-dihydro[1]benzothieno[2,3-c] pyridin-3(4H)-one] the TGI ([1]; five dose) was 100 µM, the GI50 ([1]; Homo sapiens, five dose) was 37 µM and the IC50 ([1]; Homo sapiens, five dose) was 77.6 µM. It also gave an LC50 ([1]; Homo sapiens, five dose) of over 100 µM, an inhibition at 10 µM ([1]; Homo sapiens) of 10% and a TGI ([2]; five dose) of 5.98 µM. It also gave a GI50 ([2]; Homo sapiens, five dose) of 1.32 µM, an IC50 ([2]; Homo sapiens, five dose) of 3.09 µM and an inhibition at 10 µM ([2]; Homo sapiens) of 161%. For the same compound, the GI50 ([16]; Homo sapiens) was 23 µM, the IC50 ([16]; Homo sapiens) was 46.8 µM and the TGI [16] was 100 µM. The TGI ([3]; five dose) was 100 µM, the GI50 ([3]; Homo sapiens, five dose) was 10.5 µM and the IC50 ([3]; Homo sapiens, five dose) was 19.1 µM. For the same compound, the inhibition at 10 µM ([3]; Homo sapiens) was 10.1%, the “DNA content (%) G0-G1” value [17] was 49.61% and the “DNA content (%) G2/M” value [17] was 6.21%. For the same compound, the “DNA content (%) Pre-G1” value [17] was 42.55%, the “DNA content (%) S” value [17] was 44.18% and the GI50 ([18]; Homo sapiens) was 24.6 µM. The IC50 ([18]; Homo sapiens) was 44.7 µM, the LC50 ([18]; Homo sapiens) was over 100 µM and the TGI [18] was 100 µM. It also gave a GI50 ([15]; Homo sapiens, five dose) of 10.6 µM, an IC50 ([15]; Homo sapiens, five dose) of 34.7 µM and an LC50 ([15]; Homo sapiens, five dose) of over 100 µM. It also gave an inhibition at 10 µM ([15]; Homo sapiens) of 58.8%, a TGI ([15]; five dose) of 100 µM and a GI50 ([4]; Homo sapiens, five dose) of 0.15 µM. The IC50 ([4]; Homo sapiens, five dose) was 0.24 µM, the inhibition at 10 µM ([4]; Homo sapiens) was 149% and the TGI ([4]; five dose) was 0.65 µM. For the same compound, the GI50 ([5]; Homo sapiens, five dose) was 13.6 µM, the IC50 ([5]; Homo sapiens, five dose) was 25.1 µM and the inhibition at 10 µM ([5]; Homo sapiens) was 20%. For the same compound, the TGI ([5]; five dose) was 100 µM, the GI50 ([6]; Homo sapiens, T47D, five dose) was 0.32 µM and the IC50 ([6]; Homo sapiens, T47D, five dose) was over 100 µM. The inhibition at 10 µM ([6]; Homo sapiens, T47D) was 97.5%, the TGI ([6]; five dose) was 100 µM and the TGI ([7]; five dose) was 100 µM. It also gave a GI50 ([7]; Homo sapiens, five dose) of 16.5 µM, an IC50 ([7]; Homo sapiens, five dose) of 72.4 µM and an inhibition at 10 µM ([7]; Homo sapiens) of 10.8%. For the same compound, the inhibition at 10 µM ([8]; Homo sapiens) was 76.4%, the GI50 ([8]; Homo sapiens, five dose) was 0.26 µM and the IC50 ([8]; Homo sapiens, five dose) was 0.55 µM. For the same compound, the TGI ([8]; five dose) was 10.00 µM, the GI50 ([9]; Homo sapiens, five dose) was 0.73 µM and the IC50 ([9]; Homo sapiens, five dose) was 3.39 µM. For the same compound, the inhibition at 10 µM ([9]; Homo sapiens) was 115%, the TGI ([9]; five dose) was 100 µM and the inhibition at 10 µM ([10]; Homo sapiens) was 24.5%. For the same compound, the GI50 [10, 22] was 11.6 µM, the IC50 [10, 22] was 33.1 µM and the TGI ([10]; MDA-MB-231/ATCC, five dose) was 100 µM. The GI50 ([19]; Homo sapiens, U-251) was 2.5 µM, the IC50 ([19]; Homo sapiens, U-251) was 12.6 µM and the TGI [19] was 100 µM. For the same compound, the GI50 ([20]; Homo sapiens) was 6.12 µM, the IC50 ([20]; Homo sapiens) was over 100 µM and the TGI [20] was 100 µM. The “Apoptosis total (% of cells)” value [21] was 42.55%, the “Early apoptosis (% of cells)” value [21] was 1.66% and the “Late apoptosis (% of cells)” value [21] was 26.67%. For the same compound, the “Necrosis (% of cells)” value [21] was 14.22%, the “elevation in necrosis vs control” value [21] was 7.68 fold and the “increase in early apoptotic cells vs control” value [21] was 6.64 fold. The “increase in late apoptotic cells vs control” value [21] was 140.36 fold, the “total increase vs control” value [21] was 18.58 fold and the “potency compared to staurosporine” value [11] was “higher potency”. For the same compound, the “potency relative to abiraterone” value [11] was “fourfold”, the IC50 ([11]; Homo sapiens) was 2.08 µM and the “potency compared to staurosporine” value [12] was “higher potency”. The “potency compared to staurosporine” value [13] was “half potency”, the inhibition at 10 µM ([14]; Homo sapiens) was 137% and the GI50 ([14]; Homo sapiens, five dose) was 1.73 µM. For the same compound, the IC50 ([14]; Homo sapiens, five dose) was 5.89 µM and the TGI ([14]; five dose) was 100 µM.
